One compound from patent US11992493B1, “Use of compound or pharmaceutical derivative thereof in inhibiting CaMK2G protein activity” (priority 2022, dated 2024) can be followed below.

Test [1] deals with T1, human-derived CaMK2γ protein (Homo sapiens, UniProt Q13555).
T1 construct: a pET28A vector is firstly used to express and purify the human-derived full-length CaMK2γ protein; made in house; host or cells: pET28A vector
Description: SPR (Biacore, CM5 chip amine-coupling) affinity to human-derived CaMK2γ protein. The settings on record: human-derived full-length CaMK2γ protein, read-out: binding constant. How it is done: In the embodiment of the disclosure, the affinity between T2533 and human-derived CaMK2γ protein are detected. Specifically, a pET28A vector is firstly used to express and purify the human-derived full-length CaMK2γ protein. Subsequently, the affinity is determined by the surface plasmon resonance (SPR) method of Biacore™ using a CM5 chip amine-coupling.

In test [2] the target is T2, mouse-derived CaMK2γ protein (Mus musculus, UniProt Q923T9).
T2 construct: a pET28A vector is firstly used to express and purify the mouse-derived full-length CaMK2γ protein; made in house; host or cells: pET28A vector
T2 sequence (Q923T9 whole entry): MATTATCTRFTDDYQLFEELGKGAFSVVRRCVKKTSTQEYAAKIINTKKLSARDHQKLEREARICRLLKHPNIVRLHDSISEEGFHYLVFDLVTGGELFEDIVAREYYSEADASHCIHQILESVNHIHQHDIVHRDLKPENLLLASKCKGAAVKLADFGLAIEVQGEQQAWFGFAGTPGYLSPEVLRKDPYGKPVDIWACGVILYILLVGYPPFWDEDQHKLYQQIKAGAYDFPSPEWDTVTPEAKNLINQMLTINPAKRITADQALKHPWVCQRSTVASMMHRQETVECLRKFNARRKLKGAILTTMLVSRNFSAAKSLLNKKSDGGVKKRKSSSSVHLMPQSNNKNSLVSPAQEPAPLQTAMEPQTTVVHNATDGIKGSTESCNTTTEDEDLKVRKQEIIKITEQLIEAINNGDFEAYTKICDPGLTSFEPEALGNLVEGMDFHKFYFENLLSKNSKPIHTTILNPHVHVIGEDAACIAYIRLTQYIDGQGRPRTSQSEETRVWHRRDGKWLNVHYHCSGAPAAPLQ
In words: SPR (Biacore, CM5 chip amine-coupling) affinity to mouse-derived CaMK2γ protein. The settings on record: mouse-derived full-length CaMK2γ protein, read-out: binding constant. The protocol: In the embodiment of the disclosure, the affinity between T2533 and mouse-derived CaMK2γ protein are detected. Specifically, a pET28A vector is firstly used to express and purify the mouse-derived full-length CaMK2γ protein. Subsequently, the affinity is determined by the SPR method of Biacore™ using a CM5 chip amine-coupling.

For test [3], the target named is T3, CaMK2γ (Homo sapiens, UniProt Q13555).
T3 construct: purchased Promega #V9201
T3 sequence (Q13555 whole entry): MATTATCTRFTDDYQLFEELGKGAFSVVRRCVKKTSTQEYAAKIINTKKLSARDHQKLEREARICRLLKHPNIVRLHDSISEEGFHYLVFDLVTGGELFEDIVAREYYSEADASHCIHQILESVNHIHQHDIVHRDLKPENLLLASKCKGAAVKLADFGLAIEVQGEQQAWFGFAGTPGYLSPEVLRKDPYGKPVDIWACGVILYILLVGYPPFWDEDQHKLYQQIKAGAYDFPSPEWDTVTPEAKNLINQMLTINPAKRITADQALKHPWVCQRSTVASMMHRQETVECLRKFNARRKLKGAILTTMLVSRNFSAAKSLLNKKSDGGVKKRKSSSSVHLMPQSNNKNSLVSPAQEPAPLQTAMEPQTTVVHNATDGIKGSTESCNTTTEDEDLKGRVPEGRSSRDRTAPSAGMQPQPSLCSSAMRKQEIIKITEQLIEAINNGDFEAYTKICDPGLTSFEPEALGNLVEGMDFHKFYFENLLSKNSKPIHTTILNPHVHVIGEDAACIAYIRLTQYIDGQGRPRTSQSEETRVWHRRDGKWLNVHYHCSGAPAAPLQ
Description: ADP-Glo Kinase Assay + CaMK2γ Kinase Enzyme System (Promega #V9201). It is filed as biochemical. The settings on record: inhibitor final concentration 10 μM, compared with positive control, p<0.0001. The protocol: The kinase activity (%) of 130 compounds screened above are detected by ADP-Glo™ Kinase Assay+CaMK2γ Kinase Enzyme System (Promega #V9201), and the evaluation standard is kinase activity (%).
The kinase activity (%) of each well is calculated by the above method.
In the embodiment of the disclosure, the inhibition of T2533 on CaMK2γ protein activity is detected by ADP-Glo™ Kinase Assay+CaMK2 γ Kinase Enzyme System (Promega #V9201), and the specific experimental steps and settings are as follows.
(1) well setting: 2 blank wells, 2 normal reaction wells, 2 dimethyl sulfoxide (DMSO) control wells, 40 inhibitor wells with 2 plex wells for each inhibitor and 20 inhibitors. There are 46 wells in total.
(2) preparation of a kinase reaction reagent: • (a) preparation of 200 […] 4× Kinase Buffer is as shown in Table 5 below. 175 μL of the 4× Kinase Buffer is required for a single experiment, that is, 2.5*20+62.5+62.5=175 μL. The rest is prepared into 1× Kinase Buffer and used as blank well.
• (b) preparation of 10 μL 5× inhibitor solution (final concentration is 10 micromoles per liter abbreviated μM), and 2.5 μL/well. Specifically, the inhibitor is 10 millimoles per liter abbreviated mM, diluted to 1 mM with DMSO in a ratio of 1:9; the preparation method of DMSO is the same as that of inhibitor, which is used as the DMSO control well, as shown in Table 6 below. […]

Test [4] concerns IMQ-induced mice. Description: IMQ-induced psoriatic mouse model: PASI score, erythema, scaling, skin thickness, skin phenotype. It is filed as in vivo. Particulars: smeared on skin, Day−2 to Day3. The protocol:
(§1) DMSO is used to dissolve T2533 powder, the T2533 powder is weighed according to different dosage, and then diluted with β-cyclodextrin, the final concentration of DMSO is not more than 5%. The dose gradient of T2533 is 0 mg/kg, 2.5 mg/kg, 5 mg/kg, and 10 mg/kg. Each mouse is calculated as 20 grams (g), and each mouse needs to be administered 0 mg, 0.05 mg, 0.1 mg, and 0.2 mg per day.
(§2) Seven-week-old C57/BL6 mice are bred and modeled in SPF-level environment. The experimental groups are as follows: (1) applying the skin with imiquimod (IMQ) and 0 mg/kg T2533; (2) applying the skin with IMQ and 2.5 mg/kg T2533; (3) applying the skin with IMQ and 5 mg/kg T2533; (4) applying the skin with IMQ and 10 mg/kg T2533; (5) applying the skin with Vaseline® and 0 mg/kg T2533; (6) applying the skin with Vaseline® and 2.5 mg/kg T2533; (7) applying the skin with Vaseline® and 5 mg/kg T2533; and (8) applying the skin with Vaseline® and 10 mg/kg T2533.
(§3) In each group of 6 mice, the hair on the back of the mice is shaved to make the exposed skin reach 4 square centimeters. The start date of the experiment is set as Day−2, and the end date is set as Day4. From Day−2 to Day3, 200 μL of liquid drug is taken in the morning and evening every day and evenly smeared on the skin of mice until it is absorbed. From Day 0 to Day 3, 62.5 mg IMQ is applied to each mouse at noon of every day. The skin of mice is scored every day, the mice are euthanized on Day 4, and the skin tissues are taken for a series of detection.
The PASI score results and the corresponding score results of erythema, scaling, and skin thickness of the above IMQ modelled mice are shown in FIG. 9, FIG. 10, FIG. 11, and FIG. 12, respectively. The skin phenotypes and skin pathological phenotypes are shown in FIG. 13 and FIG. 14, respectively.

The test system of test [5] is IL17A^+ cells in dermal γδT subsets. In words: Flow cytometry of skin lymphocytes of IMQ-induced mice. It is filed as in vivo, mouse. Particulars: 5 mg/kg; compared with IMQ-induced mice without T2533. How it is done: as §1
Seven-week-old C57/BL6 mice are bred and modeled in SPF-level environment. […]
In each group of 6 mice, the hair on the back of the mice is shaved to make the exposed skin reach 4 square centimeters. […] The skin of mice is scored every day, the mice are euthanized on Day 4, and the skin tissues are taken for a series of detection.
(§4) The skin lymphocytes of mice in the above groups are isolated and detected by flow cytometry (i.e., the detection of the proportion of IL17A^+ cells in dermal γδT subsets, the IL17A^+ cells are main effector cells mediated by the CaMK2γ pathway of psoriasis and can secrete a large number of IL-17 cytokines to aggravate psoriasis). […] Quantitative PCR is performed on known proinflammatory genes closely related to psoriasis, including Il17a, Il17f, Il22, Tnfa and Il23a.

The test system of test [6] is Il17a, Il17f, Il22, Tnfa and Il23a. Description: Quantitative PCR of proinflammatory genes in skin of IMQ-induced mice. It is filed as in vivo, mouse. The settings on record: qPCR. How it is done:
as §1, §2, §3, §4

T1 sequence (Q13555 whole entry): as above

For `CN1CCC(=C2c3ccccc3CCn3c(C=O)cnc32)CC1` [T2533, Alcaftadine], the Kd in test [1] stood at 25.4 µM; in test [2] it was 68.4 µM. In addition, the “inhibition effect on kinase activity (%)” value in test [3] is “effectively reduce the expression of CaMK2γ protein”; in test [3] (listed as compound I), “most significant inhibition effect”. The results for the “inflammatory phenotype of IMQ-induced mice” value in test [4] (2.5 mg/kg), in test [4] (5 mg/kg) and in test [4] (10 mg/kg) were “reduces the inflammatory phenotype”, “most significant” and “reduces the inflammatory phenotype”, respectively. For the same compound, in test [5], the “proportion of IL-17A^+ cells in dermal γδT subsets” value is reported as “significantly reduced”. For the same compound, the “expression of Il17a in the skin” value in test [6] (2.5 mg/kg) and in test [6] (5 mg/kg) was “decrease significantly” throughout. Further, the “expression of Il17f in the skin” value in test [6] (2.5 mg/kg) and in test [6] (5 mg/kg) was “decrease significantly” throughout. For the same compound, the “expression of Il22 in the skin” value in test [6] (2.5 mg/kg) and in test [6] (5 mg/kg) was “unchanged” each time. Besides, the “expression of Il23a in the skin” value in test [6] (2.5 mg/kg) is on record as “unchanged”; in test [6] (5 mg/kg), “decrease significantly”. In addition, the “expression of Tnfa in the skin” value in test [6] (2.5 mg/kg) is recorded as “unchanged”; in test [6] (5 mg/kg), “decrease significantly”.
